Results on three molecules are retold here after US6342519B2, “Oxetanone derivatives” (2 Pro Chemical, priority 1999, dated 2002).

Data set [1] addresses T1, human lipase (Homo sapiens, UniProt P16233).
T1 construct: purchased Aldrich Product No. 8054
T1 sequence (P16233 17-465): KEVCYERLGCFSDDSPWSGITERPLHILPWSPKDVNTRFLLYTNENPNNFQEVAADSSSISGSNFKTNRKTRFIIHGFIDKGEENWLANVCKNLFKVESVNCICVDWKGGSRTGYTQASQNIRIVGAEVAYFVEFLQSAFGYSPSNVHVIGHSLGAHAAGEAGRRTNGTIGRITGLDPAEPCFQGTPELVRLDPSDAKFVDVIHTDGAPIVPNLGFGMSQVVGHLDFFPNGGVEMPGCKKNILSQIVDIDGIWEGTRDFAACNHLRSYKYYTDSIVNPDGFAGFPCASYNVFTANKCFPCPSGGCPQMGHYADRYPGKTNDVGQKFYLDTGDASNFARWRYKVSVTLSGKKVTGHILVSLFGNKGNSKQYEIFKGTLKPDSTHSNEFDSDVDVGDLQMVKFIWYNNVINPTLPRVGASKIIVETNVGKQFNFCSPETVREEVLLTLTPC
The data set is described as follows: Lipase inhibition assay, Lipase #1 solution (Aldrich Lipase PS Standard). In kind it is biochemical. Particulars: Lipase #1 (human lipase), 20 mL of compound stock solution in 0.2 N HCl, Sigma Lipase Substrate, pH about 8, 30 minutes, 35-37° C., titration with 0.025 N NaOH, two runs. On the procedure: (§1) Lipase inhibition assays were performed essentially as follows using each of Compounds A and B.
(§2) A 1 L stock solution of 1N NaOH was made and a 500 mL stock solution of 0.025 N NaOH was made by diluting a portion of the stock 1N solution. Also a stock solution of 0.2 N HCl was made. A 100 mL TRIZMA solution (from Aldrich Lipase Assay Kit Cat. No. 800B) was diluted with 100 mL of denatured EtOH and 300 mL of water to form a 500 mL TEW solution. Compound A from Example 6 (100 mg) was added to a portion of the 0.2 N HCl stock solution and diluted to a final volume of 300 mL with the same HCl stock solution to form a compound A stock solution. […]
(§3) In a 500 mL beaker equipped with a heat source and a magnetic stirrer was added 100 mL of distilled water, 10 mL of TEW solution, 10 mL of Sigma Lipase Substrate and a 20 mL sample (sample control was 20 mL of the stock 0.2 N HCl solution, sample A was 20 mL of the compound A stock solution, and sample B was 20 mL of the compound B stock solution). The pH was adjusted to about 8 with 1N NaOH using a pH meter, whose reading was noted and recorded as a baseline reading after the pH adjustment. […] The volume of NaOH solution used to return to the baseline pH reading was noted and recorded. […]

Data set [2] deals with T2, Pork Pancreas Lipase [EC 3.1.1.3] (Sus scrofa, UniProt P00591).
T2 construct: purchased Aldrich Product No. 32313; host or cells: pork pancreas
T2 sequence (P00591 1-450): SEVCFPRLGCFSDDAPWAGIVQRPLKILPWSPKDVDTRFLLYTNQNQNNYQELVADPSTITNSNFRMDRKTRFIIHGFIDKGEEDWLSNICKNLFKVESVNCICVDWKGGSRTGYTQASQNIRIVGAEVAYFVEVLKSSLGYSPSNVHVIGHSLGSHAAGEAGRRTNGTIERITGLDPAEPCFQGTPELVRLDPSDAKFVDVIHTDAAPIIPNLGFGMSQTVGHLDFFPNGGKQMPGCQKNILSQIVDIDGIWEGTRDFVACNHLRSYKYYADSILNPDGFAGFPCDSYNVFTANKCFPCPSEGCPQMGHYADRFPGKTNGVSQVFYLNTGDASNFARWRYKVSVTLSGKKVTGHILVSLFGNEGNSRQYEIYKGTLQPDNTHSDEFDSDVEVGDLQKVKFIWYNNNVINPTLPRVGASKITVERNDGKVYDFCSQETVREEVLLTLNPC
Briefly: Lipase inhibition assay, Lipase #2 solution (Aldrich Pork Pancreas Lipase). In kind it is biochemical. Particulars: Lipase #2 (pork pancreas lipase), 20 mL of compound stock solution in 0.2 N HCl, Sigma Lipase Substrate, pH about 8, 30 minutes, 35-37° C., titration with 0.025 N NaOH, two runs. The method, then:
as §1, §2, §3

A short description of data set [3]: Oil binding assay with olive oil and food-coloured water. The data set is classed as physicochemical. The note with it: for oil binding, observation: olive oil/substance 1.5/1 ratio by weight, then 4 mL of water with food coloring. On the procedure:
Oil binding assay were performed using each of Compounds A and B using the procedures essentially as follows.
Six controls were obtained by adding Star Brand Olive Oil (extra virgin light colored olive oil) to 4 or 7 mL sample bottles, which were photographed at a distance of 10 inches by using an IZONE POLAROID camera as follows.
For comparison with Control 4 (oil/chitosan 1.5/1 ratio) each of Compounds A and B were mixed with oil in the same ratio(oil/compound 1.5/1 ratio, green food coloring was added to the aqueous portion of the compound A sample bottle and blue food coloring was added to the aqueous portion of the compound B sample bottle).
For comparison with Control 6 (oil/chitosan 8:1 ratio and 1 mL of aqueous solution with food coloring), compound B was added to 8 times its weight of oil and stirred to a uniform consistency. The 1 mL of water was added and 5 drops of red food coloring were added.

Data set [4] concerns absorption of dietary fat. The note with it: 120 mg dose taken before, or up to one hour after, a fat-containing meal; average person; cited from earlier work.

Consider “2S, 3S, 4S [2-{(hexanoic acid modified chitosan 6-hexanoylamido}-4-methylvaleryloxy]-2-hexyl-hexadecanoic 1,3-lactone [Compound A]”, for which the “percent inhibition with respect to the control” value in data set [1] and in data set [2] was “about 50%” each time. In data set [3], the “oil binding, observation” value was “oil is bound tightly at the bottom of the bottle and there is substantially no floating oil”.
Regarding “4-[{(hexanoic acid modified chitosan 6-hexanoyloxy}-2-hexyl-hexadecanoic 1,3-lactone [Compound B]”, the “percent inhibition with respect to the control” value in data set [1] and in data set [2] was “about 50%” throughout. Also, the “water absorbed after binding oil” value in data set [3] (olive oil/compound 8:1, 1 mL of water) is recorded as “at least its weight in water”. In addition, the “tightness of oil binding compared with chitosan and compound A” value in data set [3] (olive oil/substance 1.5/1 ratio) is on record as “appeared to perhaps bind the oil more tightly than either chitosan or compound A”. Also, the “oil binding, observation” value in data set [3] was “oil is bound tightly at the bottom of the bottle and there is substantially no floating oil”. The “oil binding and water uptake, observation” value in data set [3] (olive oil/substance 8:1 ratio by weight, then 1 mL of water and 5 drops of red food coloring) is given as “uniformly absorbed the 1 mL of aqueous food coloring solution to form a homogenous layer which was present even after 24 hours”.
Consider `CCCCCCCCCCC[C@@H](C[C@@H]1OC(=O)[C@H]1CCCCCC)OC(=O)[C@H](CC(C)C)NC=O` [Orlistat, (2S,3S,5S)-5-[(S)-2-formamido-4-methyl-valeryloxy]-2-hexyl-3-hydroxy-hexadecanoic 1,3 acid lactone], for which the “share of the fat eaten at a given meal that is not absorbed” value in data set [4] is “up to one-third”.
